Counter-ions that a name gives are not always drawn.
Legend:
anesthetized rat [1] = assay: antiarrhythmic activity against calcium chloride-induced arrhythmia after intravenous administration in anesthetized rat; assay type: in vivo; details: for ED50: Rattus norvegicus, iv, ten minutes before calcium chloride, read-out: ED50 (dose effective to antagonize the appearance of arrythmia in the 50% of the treated animals)
Description: The evaluation of the antiarrhythmic activity has been performed in the anesthetized rat with the method of M. Malinov et al. (Am. J. Physiol. 172, 743-746, 1953).
Arrythmia has been induced by administering (0.25 ml in 30 seconds) a saline solution containing 15% of calcium chloride into the jugular vein.
In these experimental conditions arrythmia occurs in the 90% of the animals. The compounds have been administered intravenously ten minutes before calcium chloride. The antiarrythmic activity has been referred as dose effective to antagonize the appearance of arrythmia in the 50% of the treated animals (ED50).

[2] = test system: isolated rabbit aorta (vascular smooth muscle); assay: calcium antagonist activity on isolated rabbit aorta (CaCl2-induced contraction)
From the text: Isolated rabbit aorta: ratio between the CaCl2 con-

anesthetized rat [3] = assay: coronary dilating activity (coronary spasm induced by Vasopressin, T wave in E.C.G.) in anesthetized rat; assay type: in vivo; details: T wave restored in 50% of the animals within 2 minutes; for ED50: Rattus norvegicus, iv, 2 min
From the text: The evaluation of the coronary dilating activity has been performed with the method of O. Nieschultz, et al. (Arzneim. Forsch. 5, 680, 1955).

in vivo = assay type: in vivo; details: rat, in vivo, iv, ratio between the dose inducing bradycardia 20 and the effective anti-anginal dose 50; read-out: Therapeutic index
From the text: (§1) Furthermore, tolerability has been tested in the same experimental conditions in which it has been performed the pharmacological study in vivo.
(§2) Tolerability has been referred as effective dose to reduce heart rate of 20%. Therapeutic index has been determined as ratio between the dose inducing bradycardia 20 and the effective anti-anginal dose 50.

anesthetized rat [4] = assay: in vivo; assay type: in vivo; details: for Tolerability: Heart rate (-20%): i.v., compounds solubilized in 40% glyceril formal; for Therapeutic index: ratio between the dose inducing bradycardia 20 and the effective anti-anginal dose 50
From the text: as §1, §2

[5] = concentration in perfused liquid 10^-5 M
[6] = concentration in perfused liquid 10^-6 M
[7] = read-out: Coronary dilating activity ED50, i.v. 60 seconds after Vasopressin
[8] = i.v. 60 seconds after Vasopressin
[9] = i.v. 60 seconds after Vasopressin, read-out: Coronary dilating activity ED50

SMILES | ratio between the CaCl2 concentration producing the 50% contraction in presence or in absence of various compounds [2, 5] | ratio between the CaCl2 concentration producing the 50% contraction in presence or in absence of various compounds [2, 6] | ED50 (anesthetized rat [3]; [7]) | selectivity ratio (in vivo) | Tolerability: Heart rate (-20%) (anesthetized rat [4]) | further results
CSc1ccc([C@H](O)[C@H](CO)NC(C)CCc2ccccc2)cc1.Cl (relative stereo) [Z. 1411, (1S,2S)-1-(4-methylthiophenyl)-2-(1-methyl-3-phenylpropylamino)-1,3-propanediol hydrochloride] | 15 | 10 | 0.001 µmol/kg | 44 | 44 nmols/kg | ED50 (anesthetized rat [1]): 13 µmol/kg; number of protected rats/total number (anesthetized rat [1]; dose 8 μmols/Kg i.v.): 0/8; number of protected rats/total number (anesthetized rat [1]; dose 12 μmols/Kg i.v.): 4/8; number of protected rats/total number (anesthetized rat [1]; dose 16 μmols/Kg i.v.): 6/8
CSc1ccc([C@H](O)[C@H](CO)NC(C)c2ccccc2)cc1 (relative stereo) [Z. 1413, (1S,2S,1'S*)-1-(4-methylthiophenyl)-2-(1-methylbenzylamino)-1,3-propanediol] | – | – | – | – | 230 nmols/kg | Coronary dilating activity ED50 (anesthetized rat [3]; [8]): 4.5 nmols/kg/i.v.; Therapeutic index (anesthetized rat [4]): 51
COc1ccc(CCC(C)N[C@@H](CO)[C@@H](O)c2ccc(SC)cc2)cc1OC.Cl (relative stereo) [Z. 1434, (1S,2S)-1-(4-methylthiophenyl)-2-[1-methyl-3-(3,4-dimethoxyphenyl)-propylamino]-1,3propanediol hydrochloride] | 21 | 5 | 0.00045 µmol/kg | 93 | 42 nmols/kg | –
Fc1ccc(C(c2ccc(F)cc2)N2CCN(C/C=C/c3ccccc3)CC2)cc1 [Flunarizine, reference compound] | 16 | 1 | – | – | – | ED50 (anesthetized rat [3]; [9]): 0.00048 µmol/kg
COC(=O)C1=C(C)NC(C)=C(C(=O)OC)C1c1ccccc1[N+](=O)[O-] [Nifedipine, reference compound] | – | – | – | – | – | ED50 (anesthetized rat [3]; [9]): 0.00057 µmol/kg
CC(Cc1ccccc1)NCCC(c1ccccc1)c1ccccc1 (centres unmarked) [Prenylamine, reference compound] | 62 | 12 | 0.00184 µmol/kg | 11 | 19 nmols/kg | –
COc1ccc(CCN(C)CCCC(C#N)(c2ccc(OC)c(OC)c2)C(C)C)cc1OC (centres unmarked) [Verapamil, reference compound] | – | – | 0.00015 µmol/kg | – | – | ED50 (anesthetized rat [1]): 6 µmol/kg; number of protected rats/total number (anesthetized rat [1]; dose 4.4 μmols/Kg i.v.): 2/8; number of protected rats/total number (anesthetized rat [1]; dose 7.7 μmols/Kg i.v.): 5/8; number of protected rats/total number (anesthetized rat [1]; dose 11 μmols/Kg i.v.): 6/8
CSc1ccc([C@@H](O)[C@H](CO)NCCC(c2ccccc2)c2ccccc2)cc1 [Z. 1373] | 86 | 9 | 0.0034 µmol/kg | 7 | 23 nmols/kg | –
CSc1ccc([C@H](O)[C@H](CO)NCCC(c2ccccc2)c2ccccc2)cc1 [Z. 1382, (1S,2S)-1-(4-methylthiophenyl)-2-(3,3-diphenylpropylamino)-1,3-propanediol acid maleate] | 255 | 20 | 0.00084 µmol/kg | 20 | 17 nmols/kg | ED50 (anesthetized rat [1]): 19 µmol/kg; number of protected rats/total number (anesthetized rat [1]; dose 7.6 μmols/Kg i.v.): 1/8; number of protected rats/total number (anesthetized rat [1]; dose 13.4 μmols/Kg i.v.): 4/8; number of protected rats/total number (anesthetized rat [1]; dose 20 μmols/Kg i.v.): 3/8; number of protected rats/total number (anesthetized rat [1]; dose 27 μmols/Kg i.v.): 5/8
CSc1ccc([C@H](O)[C@H](CO)NC(C)COc2ccccc2)cc1 (some centres unmarked) [Z. 1393] | – | – | 0.0038 µmol/kg | 9 | 35 nmols/kg | –
CSc1ccc([C@H](O)[C@H](CO)NC(C)COc2ccccc2)cc1 (some centres unmarked) [Z. 1394] | 7 | 3 | – | – | – | –
CSc1ccc([C@@H](O)[C@@H](CO)NC(C)COc2ccccc2)cc1 (some centres unmarked) [Z. 1407] | – | – | 0.0032 µmol/kg | 17 | 53 nmols/kg | –
CSc1ccc([C@@H](O)[C@@H](CO)NC(C)COc2ccccc2)cc1 (some centres unmarked) [Z. 1408] | – | – | – | – | 76 nmols/kg | ED50 (anesthetized rat [1]): 35 µmol/kg; number of protected rats/total number (anesthetized rat [1]; dose 16 μmols/Kg i.v.): 1/8; number of protected rats/total number (anesthetized rat [1]; dose 32 μmols/Kg i.v.): 4/8; number of protected rats/total number (anesthetized rat [1]; dose 56 μmols/Kg i.v.): 6/8; Coronary dilating activity ED50 (anesthetized rat [3]; [8]): 3.7 nmols/kg/i.v.; Therapeutic index (anesthetized rat [4]): 21
CSc1ccc([C@H](O)[C@H](CO)NCC(C)c2ccccc2)cc1.Cl (stereo partly drawn) [Z. 1409, (1S,2S)-1-(4-methylthiophenyl)-2-(2-phenylpropylamino)-1,3-propanediol hydrochloride] | 12 | 4 | 0.00084 µmol/kg | 87 | 73 nmols/kg | ED50 (anesthetized rat [1]): 43 µmol/kg; number of protected rats/total number (anesthetized rat [1]; dose 8 μmols/Kg i.v.): 0/8; number of protected rats/total number (anesthetized rat [1]; dose 16 μmols/Kg i.v.): 2/8; number of protected rats/total number (anesthetized rat [1]; dose 24 μmols/Kg i.v.): 3/8; number of protected rats/total number (anesthetized rat [1]; dose 48 μmols/Kg i.v.): 5/8
CSc1ccc([C@H](O)[C@H](CO)NC(C)c2ccccc2)cc1 (some centres unmarked) [Z. 1414] | – | – | 0.004 µmol/kg | – | 100 nmols/kg | Therapeutic index (anesthetized rat [4]): 25
CSc1ccc([C@H](O)[C@H](CO)NCC(c2ccccc2)c2ccccc2)cc1 [Z. 1415, (1S,2S)-1-(4-methylthiophenyl)-2-(2,2-diphenylethylamino)-1,3-propanediol] | 27 | 6 | 0.0029 µmol/kg | 17 | 49 nmols/kg | –
CSc1ccc([C@H](O)[C@H](CO)N(C)C(C)CCc2ccccc2)cc1 (some centres unmarked) [Z. 1428] | 30 | 2 | – | – | – | –
CSc1ccc([C@H](O)[C@H](CO)N2CCN(C(c3ccccc3)c3ccccc3)CC2)cc1 [Z. 1439] | 24 | 4 | 0.0033 µmol/kg | 7 | 23 nmols/kg | –
